Test results reported in publication PMC7749107, “Identification and functional characterization of the first molluscan neuromedin U receptor in the slug, Deroceras reticulatum” (Scientific Reports, 2020).
Entries after “also recorded” stand apart in the source; their conditions may differ. Like-named read-outs stand apart in the source and are kept apart here. Where a SMILES comes first, the peptide text is derived from it.

Legend:
DretNmU-Rb = target: T1, DretNmU-Rb (Deroceras reticulatum, UniProt A0A888YNJ5); test: Calcium mobilisation (FLIPR Calcium 6 fluorescence) receptor activation assay, Sf9 cells stably expressing DretNmU-Rb; assay type: cell-based; conditions: for Binding activity (receptor response, ∆fluorescence) at single concentration: 500 nM peptide, three to four replicates, result in words
T1 sequence (A0A888YNJ5 1-502): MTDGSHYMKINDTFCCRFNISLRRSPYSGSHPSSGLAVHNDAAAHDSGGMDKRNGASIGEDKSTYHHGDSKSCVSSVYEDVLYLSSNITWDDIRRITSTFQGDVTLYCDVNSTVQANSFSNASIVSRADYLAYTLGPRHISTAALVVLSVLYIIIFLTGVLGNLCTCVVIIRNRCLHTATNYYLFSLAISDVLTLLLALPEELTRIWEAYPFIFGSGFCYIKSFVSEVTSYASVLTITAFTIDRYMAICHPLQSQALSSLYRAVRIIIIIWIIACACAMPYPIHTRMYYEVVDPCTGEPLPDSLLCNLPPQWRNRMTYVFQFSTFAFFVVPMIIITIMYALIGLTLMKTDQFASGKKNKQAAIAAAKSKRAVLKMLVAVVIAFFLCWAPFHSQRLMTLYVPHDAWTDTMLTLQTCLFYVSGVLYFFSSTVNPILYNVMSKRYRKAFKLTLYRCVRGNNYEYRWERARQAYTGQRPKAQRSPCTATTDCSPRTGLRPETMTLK
Experimental: (§1) Sf9 cells were cultured in a 50 ml-Erlenmeyer flask while shaking at 145 rpm at 28 °C using Insectagro Sf9 Medium (Corning) supplemented with 5% heat-inactivated fetal bovine serum (HyClone, USA) and antibiotics (penicillin and streptomycin; Gibco). Three µg of either pIB/DretNmU-Ra or pIB/DretNmU-Rb plasmid was added to 100 μl of serum-free medium, and 15% CellFectin II (Invitrogen) in 100 μl serum-free medium was prepared, and both were placed at room temperature for 5 min. Samples were combined by pipetting and placed at room temperature for another 20 min. The plasmid-CellFectin II mixture was then added to a T-25 flask containing a layer of Sf9 cells covering about 70% of the surface, and incubated overnight. The next morning, the medium was replaced with fresh medium containing 50 μg/ml blasticidin. […] When culture was confluent, the recombinant cells were lifted and transferred to suspension cultures and grown until the exponential growth phase, and then stock cultures were frozen in liquid nitrogen. These frozen stock cell lines were thawed, cultivated for several passages in media containing 20 μg/ml blasticidin, and used for the ligand binding assays.
(§2) Two days before the binding assay, ~ 50,000 Sf9 cells expressing the DretNmU-Ra or -Rb from suspension cultures were dispensed into each well of a black 96-well plate (Corning C3603) and incubated at 28 °C overnight. At 48 h, cells were rinsed once with 100 μl of fresh medium without FBS. After removing the media, cells were incubated with 95 μl of 1 × FLIPR Calcium 6 reagent (Molecular Devices, USA) containing 2.5 mM probenecid at room temperature in the dark for 1 h. The Calcium 6 reagent-loaded cells were transferred to the Flexstation 3 multi-mode microplate reader (Molecular Devices) to measure fluorescence change (∆fluorescence) before and after loading 5 μl of peptide ligands (20×), detecting emission at 535 nm with excitation at 485 nm. Fluorescence measurements from each well on the column were taken every 5 s for 4 min. The peptide ligand was added by automatic pipettor once at 30 s from the beginning, and 5 μl of 5 μM ionomycin was added at 3 min to confirm calcium activity. Baseline fluorescence was determined by averaging 5 time points from each well prior to treatment with ligand and the resulting response was expressed as a percent increase in fluorescence relative to the baseline value.
(§3) For the initial screening and structure–activity tests, each cell line was exposed to a single concentration of 500 nM of each peptide or control. For the dosage-response assay, threefold serial dilutions of selected ligands with water were used, giving final ligand concentrations between 8 pM and 1.5 μM. The mean response from four wells receiving the same treatment in the same plate was regarded as one replicate, and at least three replicates from independent assays on different cell plates were analyzed. Data were transformed into a log scale and fit into the non-linear regression curve. EC50 values were obtained by statistical analysis using the sum of squares F-test function using GraphPad Prism version 8.0 (San Diego, CA, USA).

DretNmU-Ra = target: T2, DretNmU-Ra (Deroceras reticulatum, UniProt A0A888YNE3); test: Calcium mobilisation (FLIPR Calcium 6 fluorescence) receptor activation assay, Sf9 cells stably expressing DretNmU-Ra; assay type: cell-based; conditions: for Binding activity (receptor response, ∆fluorescence) at single concentration: 500 nM peptide, three to four replicates, result in words
T2 sequence (A0A888YNE3 1-505): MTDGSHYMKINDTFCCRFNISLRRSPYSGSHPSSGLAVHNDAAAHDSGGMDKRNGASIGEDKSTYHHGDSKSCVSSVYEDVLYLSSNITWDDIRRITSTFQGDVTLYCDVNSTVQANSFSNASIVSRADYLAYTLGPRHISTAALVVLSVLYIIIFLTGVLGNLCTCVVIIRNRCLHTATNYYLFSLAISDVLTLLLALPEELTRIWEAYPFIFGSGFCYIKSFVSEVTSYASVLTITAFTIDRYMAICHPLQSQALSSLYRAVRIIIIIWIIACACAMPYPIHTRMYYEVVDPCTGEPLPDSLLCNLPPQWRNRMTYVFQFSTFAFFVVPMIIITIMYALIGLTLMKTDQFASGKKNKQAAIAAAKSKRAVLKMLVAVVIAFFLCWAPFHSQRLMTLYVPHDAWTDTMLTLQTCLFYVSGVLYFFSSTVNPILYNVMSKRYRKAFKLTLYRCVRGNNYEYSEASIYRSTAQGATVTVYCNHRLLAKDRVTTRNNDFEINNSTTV
Experimental: as §1, §2, §3

Deroceras reticulatum = test: Injection bioassay of the peptides in the slug; assay type: in vivo; conditions: n = 4; for Atypical behaviors after injection: 10 nmol peptide in 5 μl water injected into the foot, observed for initial 30 min, compared with water control; for Mortality after 3 days: 10 nmol peptide in 5 μl water injected into the foot of adult slugs, 18 °C
Experimental: Two peptides, QPPLPRYa and QPPVPRYa, were dissolved in purified water to obtain a 2 mM concentration and individually injected into the adult slugs (270–520 mg in weight). A Hamilton syringe was used to inject a dose of 10 nmol peptide in 5 μl water or water only for control into the posterior part of the foot of the slug (n = 4). The foot was chosen as the injection site in order to avoid possible damage to internal organs, which are primarily located underneath the mantle. […] Since the treated slugs secreted a large amount of the defensive mucus, weight loss was assessed by weighing the slugs on a VWR B2-Series Analytical Balance immediately before the treatment and again 3 days later. Post treatment weights were obtained after slugs were placed under wet conditions (slugs placed in a ventilated 8 oz plastic container lined with damp tissue paper) or under dry conditions (same container type without damp tissue paper). Slugs were placed under these conditions approximately 30 min after injection. These plastic containers were maintained in a growth chamber (Thermo Scientific Precision Model 818) at 18 °C and 12 h photoperiod. Statistical analysis was performed by One-way ANOVA followed by Dunnett’s multiple comparisons test using GraphPad Prism version 8.0 (GraphPad Software, CA, USA).

[1] = Sf9 cells stably expressing DretNmU-Rb
[2] = Sf9 cells stably expressing DretNmU-Rb, calcium fluorescence, threefold serial dilutions 8 pM to 1.5 μM, four to five replicates from independent assays, each the mean of four wells, read-out: EC50, normalized concentration-response
[3] = Sf9 cells stably expressing DretNmU-Ra
[4] = Sf9 cells stably expressing DretNmU-Ra, calcium fluorescence, threefold serial dilutions 8 pM to 1.5 μM, four to five replicates from independent assays, each the mean of four wells, read-out: EC50, normalized concentration-response

Question: How did the “Binding activity (receptor response, ∆fluorescence) at single concentration” value (“Binding activity” below) (DretNmU-Rb; [1]) turn out when `CC[C@H](C)[C@H](NC(=O)[C@H](CCCNC(=N)N)NC(=O)[C@@H]1CCCN1C(=O)[C@H](CCCNC(=N)N)NC(=O)[C@@H]1CCCN1C(=O)[C@@H](NC(=O)[C@H](C)N)C(C)C)C(N)=O` [AVPRPRIa] (H-AVPRPRI-NH2; N-terminus assumed) was run?
Answer: The value was “evoked distinct binding”.

Question: And the EC50 (DretNmU-Rb; [2])?
Answer: Its EC50 is 12.4 nM.

Question: What about the “Binding activity” value (DretNmU-Ra; [3]) of the same compound?
Answer: Its value is “evoked distinct binding”.

Question: What about the EC50 (DretNmU-Ra; [4]) of the same compound?
Answer: The EC50 was 6.4 nM.

Question: `CC(C)C[C@H](NC(=O)[C@@H]1CCCN1C(=O)[C@@H]1CCCN1C(=O)[C@@H](N)CC(N)=O)C(=O)N1CCC[C@H]1C(=O)N[C@@H](CCCNC(=N)N)C(=O)N[C@@H](Cc1ccc(O)cc1)C(N)=O` [NPPLPRYa] (H-NPPLPRY-NH2; N-terminus assumed) was tested. Which EC50 (DretNmU-Rb; [2]) did it give?
Answer: The EC50 was 25.1 nM.

Question: And the EC50 (DretNmU-Ra; [4])?
Answer: Its EC50 is 32.2 nM.

Question: With `CC(C)C[C@H](NC(=O)[C@@H]1CCCN1C(=O)[C@@H]1CCCN1C(=O)[C@@H](N)CCC(N)=O)C(=O)N1CCC[C@H]1C(=O)N[C@@H](CCCNC(=N)N)C(=O)N[C@@H](Cc1ccccc1)C(N)=O` [QPPLPRFa] (H-QPPLPRF-NH2; N-terminus assumed) as the compound, how does the “Binding activity” value (DretNmU-Rb; [1]) read?
Answer: Its value is “retained normal activity”.

Question: What about the EC50 (DretNmU-Rb; [2]) of the same compound?
Answer: The EC50 was 128 nM.

Question: And the “Binding activity” value (DretNmU-Ra; [3])?
Answer: The value was “retained normal activity”.

Question: What about the EC50 (DretNmU-Ra; [4]) of the same compound?
Answer: The EC50 was 55.1 nM.

Question: For `CC(C)C[C@H](NC(=O)[C@@H]1CCCN1C(=O)[C@@H]1CCCN1C(=O)[C@@H](N)CCC(N)=O)C(=O)N1CCC[C@H]1C(=O)N[C@@H](CCCNC(=N)N)C(=O)N[C@@H](Cc1ccc(O)cc1)C(N)=O` [QPPLPRYa] (H-QPPLPRY-NH2; N-terminus assumed), which “Atypical behaviors after injection” value (Deroceras reticulatum) is on record?
Answer: The value was “triggered a series of distinct, atypical behaviors”.

Question: What about the “Mortality after 3 days” value (Deroceras reticulatum; dry conditions) of the same compound?
Answer: The value was 100%.

Question: And the “Mortality after 3 days” value (Deroceras reticulatum; wet conditions)?
Answer: Its value is 50%.

Question: And the EC50 (DretNmU-Rb)?
Answer: Its EC50 is 4.1 nM.

Question: What about the “Binding activity” value (DretNmU-Rb; [1]) of the same compound?
Answer: Its value is “evoked distinct binding”.

Question: And the EC50 (DretNmU-Ra)?
Answer: Its EC50 is 1.4 nM.

Question: What about the “Binding activity” value (DretNmU-Ra; [3]) of the same compound?
Answer: The value was “evoked distinct binding”.

Question: Which “Atypical behaviors after injection” value (Deroceras reticulatum) does the source give for `CC(C)[C@H](NC(=O)[C@@H]1CCCN1C(=O)[C@@H]1CCCN1C(=O)[C@@H](N)CCC(N)=O)C(=O)N1CCC[C@H]1C(=O)N[C@@H](CCCNC(=N)N)C(=O)N[C@@H](Cc1ccc(O)cc1)C(N)=O` [QPPVPRYa] (H-QPPVPRY-NH2) here?
Answer: The value was “triggered a series of distinct, atypical behaviors”.

Question: What about the “Mortality after 3 days” value (Deroceras reticulatum; dry conditions) of the same compound?
Answer: Its value is 50%.

Question: And the “Mortality after 3 days” value (Deroceras reticulatum; wet conditions)?
Answer: The value was 0%.

Question: What about the EC50 (DretNmU-Rb) of the same compound?
Answer: The EC50 was 12.7 nM.

Question: And the “Binding activity” value (DretNmU-Rb; [1])?
Answer: Its value is “evoked distinct binding”.

Question: What about the EC50 (DretNmU-Ra) of the same compound?
Answer: The EC50 was 6.4 nM.

Question: And the “Binding activity” value (DretNmU-Ra; [3])?
Answer: The value was “evoked distinct binding”.

Question: With “LPRYa [N-terminally truncated tetra-peptide of QPPLPRYa]” as the compound, how does the “Binding activity” value (DretNmU-Rb; [1]) read?
Answer: The value was “all activity was lost”.

Question: What about the “Binding activity” value (DretNmU-Ra; [3]) of the same compound?
Answer: Its value is “all activity was lost”.

Question: How did the “Binding activity” value (DretNmU-Rb; [1]) turn out when “PLPRYa [N-terminally truncated pentapeptide of QPPLPRYa]” was run?
Answer: Its value is “gradual decrease of the binding ability”.

Question: What about the “Binding activity” value (DretNmU-Ra; [3]) of the same compound?
Answer: Its value is “gradual decrease of the binding ability”.

Question: Which “Binding activity” value (DretNmU-Rb; [1]) does the source give for “QPPLARYa [modified QPPLPRYa, alanine replacement of P5]” here?
Answer: The value was “almost completely disappeared”.

Question: And the “Binding activity” value (DretNmU-Ra; [3])?
Answer: The value was “almost completely disappeared”.

Question: Which results are given for “QPPLPAYa [modified QPPLPRYa, alanine replacement of R6]”?
Answer: Binding activity (receptor response, ∆fluorescence) at single concentration (DretNmU-Rb; [1]): almost completely disappeared; Binding activity (receptor response, ∆fluorescence) at single concentration (DretNmU-Ra; [3]): almost completely disappeared

Question: Which “Binding activity” value (DretNmU-Rb; [1]) does the source give for “QPPLPRAa [modified QPPLPRYa, alanine replacement of Y7]” here?
Answer: The value was “almost completely disappeared”.

Question: What about the “Binding activity” value (DretNmU-Ra; [3]) of the same compound?
Answer: The value was “almost completely disappeared”.

Question: How did the “Binding activity” value (DretNmU-Rb; [1]) turn out when “QPPLPRWa [modified QPPLPRYa, C-terminal Y replaced with W]” was run?
Answer: Its value is “dramatically reduced in its binding activity; also recorded: activity was eliminated”.

Question: What about the “Binding activity” value (DretNmU-Ra; [3]) of the same compound?
Answer: The value was “dramatically reduced in its binding activity; also recorded: activity was eliminated”.
